Values quoted from earlier work, collected in patent US7288574B2, “Two-phase oxygenated solution and method of use” (priority 2001, dated 2007).

Details: equilibrium with air (pO2=0.21) at 77° F.

solubility limit of oxygen in water: approximately 8.3 mg/l
SMILES: O=O [oxygen]
